Measurements: BindingDB's records for doi:10.1021/jm2005089 (National Human Genome Research Institute, 2011)

Target: T1, Polyunsaturated fatty acid lipoxygenase ALOX12 (Homo sapiens, UniProt P18054)
T1 sequence (P18054 whole entry): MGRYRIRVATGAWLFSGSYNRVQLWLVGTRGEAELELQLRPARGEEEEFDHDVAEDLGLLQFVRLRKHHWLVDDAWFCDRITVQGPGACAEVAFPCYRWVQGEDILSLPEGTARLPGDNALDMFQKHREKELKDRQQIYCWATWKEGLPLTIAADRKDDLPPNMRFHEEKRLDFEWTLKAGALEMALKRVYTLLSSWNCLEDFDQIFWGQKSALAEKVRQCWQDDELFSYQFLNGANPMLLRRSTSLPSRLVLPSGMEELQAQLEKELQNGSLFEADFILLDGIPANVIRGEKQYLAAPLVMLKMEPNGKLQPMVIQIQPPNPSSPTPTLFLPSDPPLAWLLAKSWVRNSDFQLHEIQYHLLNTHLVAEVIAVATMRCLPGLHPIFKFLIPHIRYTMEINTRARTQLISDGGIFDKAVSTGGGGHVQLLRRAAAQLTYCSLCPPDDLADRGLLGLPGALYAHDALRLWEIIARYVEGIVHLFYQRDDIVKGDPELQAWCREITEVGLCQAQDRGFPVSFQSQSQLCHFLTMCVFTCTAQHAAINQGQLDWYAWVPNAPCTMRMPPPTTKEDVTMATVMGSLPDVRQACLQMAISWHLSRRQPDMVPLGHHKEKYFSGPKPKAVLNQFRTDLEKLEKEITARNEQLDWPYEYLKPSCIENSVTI
Experiment: Competitive inhibition of human platelet-type N-terminally His6-tagged 12-lipoxygenase assessed as 12-HPETE formation using arachidonic acid by Michaelis-Menten equation analysis

Ki: 700 nM
SMILES: CC(=O)NC(c1cccs1)c1cc(Cl)c2cccnc2c1O (stereo unspecified)
